# Test results as given in US20080175813A1, “NOVEL ATTRACTANTS FOR VESPID WASPS” (PHEROTECH INTERNATIONAL INC., priority 2007, published 2008).
# Assays:
# Format in all cases: in vivo
# Vespula pennsylvanica [1] = assay: Experiment 1: field trapping in Oak Stump traps, chopped dried apples as supplement for heptyl butyrate; settings: Experiment 1, N = 12, Oak Stump traps, 8-11 Sep. 2006, 12 g chopped dried apples in capture water
# Experimental: The experiment was run for 3 days in Tilbury Industrial Park in Delta, B.C. from 8-11 Sep. 2006. Large 2 L Oak Stump traps, with a single transverse entry tube, and 300-350 mL of water with 2-3 drops of liquid detergent added in the bottom of the interior chamber, were hung at eye level from trees or woody bushes. Traps for each of three treatments were deployed in 12 randomized complete blocks, with ≧5 m between traps. […] Almost all captured wasps were western yellowjackets, Vespula pennsylvanica. The very few Polistes spp. captured (no more than two per trap, with most traps having none) were not counted.
# Vespula pennsylvanica [2] = assay: Experiment 2: field trapping, apple pomace vs chopped dried apples as supplements for heptyl butyrate; settings: Experiment 2, N = 15, 15-18 Sep. 2006, 12 g supplement in plastic mesh in capture water
# Experimental: The experiment was run for 3 days in Tilbury Industrial Park in Delta, B.C. from 8-11 Sep. 2006. Large 2 L Oak Stump traps, with a single transverse entry tube, and 300-350 mL of water with 2-3 drops of liquid detergent added in the bottom of the interior chamber, were hung at eye level from trees or woody bushes. Traps for each of three treatments were deployed in 12 randomized complete blocks, with ≧5 m between traps. […] Experiment 2, with 15 replicates, was run at the same location as Experiment 1 from 15-18 Sep. 2006. […] The apple pomace was obtained from Agrisource Food Products Inc., Richmond, B.C.
# Vespula pennsylvanica [3] = assay: Experiment 3: field trapping, wet vs dry apple pomace as supplements for heptyl butyrate; settings: Experiment 3, N = 12, 21-22 Sep. 2006, 12 g apple pomace in mesh bag, suspended dry or immersed in capture water
# Experimental: The experiment ran from 21-22 Sep. 2006, at the same location as the first two experiments. All other experimental conditions were the same as above. Twelve replicates of three treatments were tested: 1) heptyl butyrate alone, 2) heptyl butyrate plus a mesh bag containing 12 g of apple pomace suspended dry from the trap lid along with the heptyl butyrate lure, and 3) heptyl butyrate plus 12 g of apple pomace in a mesh bag immersed in the water-detergent capture medium in the bottom of the interior chamber.
# Vespula pennsylvanica [4] = assay: Experiment 4: field trapping, apple pomace vs apple juice as supplements for heptyl butyrate; settings: Experiment 4, N = 12, set up 29 Sep. 2006, collections Sept 30, Oct 2, Oct 4; 5 g apple pomace; apple juice replacing capture water
# Text: A final 12-replicate experiment was set up as above, and compared wet apple pomace with apple juice. The three treatments were: 1) heptyl butyrate alone, 2) heptyl butyrate plus apple juice, and 3) heptyl butyrate plus apple pomace. In the second treatment, apple juice (Sun-Rype Products Ltd., Kelowna, B.C.) with 2-3 drops of detergent added replaced the water-detergent capture medium in the bottom of the interior trap chamber. In the third treatment, the amount of apple pomace in the plastic mesh bag immersed in the water-detergent capture medium in the bottom of the interior chamber was reduced to 5 g, which is a realistic operational dose. The experiment was set up on 29 Sep. 2006, and captured wasps were removed from the traps and counted on September 30, October 2 and October 4.
smiles,measurement,setting,value
"CCCCCCCOC(=O)CCC [Heptyl butyrate alone, heptyl butyrate]",MEAN NUMBER OF WASPS CAPTURED ± SE,Vespula pennsylvanica [1],72.8 ± 13.9 b
same,MEAN NUMBER OF WASPS CAPTURED ± SE,Vespula pennsylvanica [1]; listed as heptyl butyrate,73
same,MEAN NUMBER OF WASPS CAPTURED ± SE,Vespula pennsylvanica [2],15.7 ± 3.4 ab
same,MEAN NUMBER OF WASPS CAPTURED ± SE,Vespula pennsylvanica [3],9.8 ± 2.0 ab
same,MEAN NUMBER OF WASPS CAPTURED ± SE,Vespula pennsylvanica [4],24.3 ± 6.7 a
